Reference: patent US11773108B2, “Indene derivatives useful in treating pain and inflammation” (TARO PHARMACEUTICALS INC., priority 2018, dated 2023)

Tests used:
[1] = Metabolism by human liver microsomes; assay type: in vitro ADME; conditions: human liver microsomes 1 mg/mL protein, 10 μM, in the presence of NADPH, LC-MS/MS
Description: Representative compounds of the invention (i.e., test compounds) and the positive control, 7-ethoxycoumarin, were prepared as stock solutions at 10 mM in DMSO and eventually diluted to 10 μM in the test plate, with an appropriate amount of acetonitrile and tris HCl buffer. Final DMSO and acetonitrile concentrations were […] and 0.5% respectively. NADPH was prepared in tris HCl buffer to a stock of 10 mM. A frozen aliquot of liver microsomes was retrieved from the freezer (−80° C.) and thawed by placing the tube on wet ice. After thawing, the tubes were gently mixed and the required amount, transferred to tris HCl buffer. Test compounds or positive control were pre-incubated, separately, for 10 minutes, with liver microsomes (1 mg/mL protein), at 37° C., in 100 mM Tris HCl at pH 7.5. After preincubation the reaction was started by adding 1 mM NADPH (pre-equilibrated to 30° C.) and the reaction allowed to proceed for 60 minutes. At 60 minutes, a 50 μL aliquot was removed and quenched with 200 uL of acetonitrile containing a mixture of internal standards (Tolbutamide (500 ng/mL) and Telmistartan (500 ng/mL)) and vortexed then centrifuged at 4000 rpm for 10 minutes (Eppendorf 5810R). The supernatant was transferred to a 96 well plate for LC-MS/MS analysis.
An LC-MS/MS method was devised for the test compounds and the control, using a AB Sciex API 4000 system coupled to a NEXAR™ UHPLC (Shimadzu) system. Analytes were separated on a Phenomenex Kinetex C18 column (50×2.1 mm, 5 μm) using a gradient that was appropriate for each compound, at a flow rate of 1 ml/minute, utilizing a mobile phase of 0.1% formic acid in MILLI-Q™ water (A) and 0.1% formic acid in acetonitrile (B). The MS instrument was operated in positive mode (ESI+)/negative (ESI−). The multiple reaction monitoring (MRM) transition for test and control compounds was used for the LC-MS/MS analysis. MRM transitions for control compound 7-ethoxycoumarinm were Quadropole 1: 191.0, Quadropole 3:163.0, dwell time: 75 msec, using curtain gas settings of 5 V, ion-spray voltage of 5500 V, temperature of 50° C. and gas settings for nebulizer and auxiliary set to 30 and 40 psi, respectively. The interface heater was kept on. Entrance potential and collision cell exit potential were varied to tune for a specific compound.
Using a suitable LC-MS/MS method, the percentage of drug remaining at 60 minutes ([…]) was assessed by comparing the average analyte to internal standard area ratio at 60 minutes to the average analyte to internal standard area ratio at 0 time control, as a percentage, from a 5 to 10 μL sample injection.
According to the above assay, the test compounds listed in Table 7 below were active in the Human liver microsome assay at 10 μM and the % of drug remaining after 60 minutes (PDR60), in the presence of NADPH, was assessed by LC-MS/MS. Average PDR60 for the standard compound, 7-ethoxycoumarin was <=65% in the presence of NADPH. Scoring for the test compounds, in the presence of NADPH, was as follows: “A” represents a PDR60 of 81 to 100%, “B” represents a PDR60 of 61 to 80%, “C” represents a PDR60 of 31 to 60% and “D” represents a PDR60 of 0 to 30%.

[2] = test system: rat dorsal root ganglion (DRG) cells; assay: Rat dorsal root ganglion (DRG) excitability response to electrical field stimulation; assay type: cell-based; conditions: adult rat DRG cells, Ca5 Ca2+ indicator, six concentrations, highest typically 30 μM, read-out: Scoring: EC50, modulation of rat DRG excitability
Description: Rat Dorsal Root Ganglion Excitability Response of Representative Compounds Dorsal root ganglions (DRGs) were dissected from adult rats. The tissue was processed, and cells were seeded into cell culture plates (48 center wells of one quadrant in 384-well plates) and cultured for 2 days prior to Electrical field stimulation (EFS). To visualize the neuronal excitability response, intracellular Ca^+2 transients were monitored using the Ca^+2 indicator, Ca5. Ca5 was added to the cultures 1 h prior to EFS. Representative compounds of the invention (i.e., test compounds) and reference compound, tetracaine, were added in concentration-response format encompassing six concentrations, performed in duplicate. The highest concentration tested was typically 30 μM with 1 in 3 dilutions generating the subsequent concentrations.
Effects on DRG excitability by the test compounds and standard were evaluated using four EFS protocols as disclosed in Table 2.
Experimental results were performed using two seperate sets of plates using separate test compound and standard dilutions, to provide n=2. In the first set of experiments, compounds were added 24 h prior to EFS to increase the possibility to also detect more long-term compound effects. In the second set of experiments the compounds were added directly prior to EFS. Excitability response to EFS was analyzed as the average fluorescence ratio (peak/baseline) change per well. All plates were evaluated using high content imaging equipment post-EFS, imaging the Ca5 background staining to detect any possibile compound-related toxic effects.
Average response by the reference compound, tetracaine, was 4.05 μM.

[3] = test system: T cells isolated from mouse spleens; assay: T cell proliferation (anti-CD3/anti-CD28 dynabeads, CCK-8 assay); assay type: cell-based; conditions: 72 hours, read-out: Scoring: IC50, cell proliferation
Description: weeks old. Cells were harvested under sterile conditions by forcing each spleen though a cell filter (pore size 100 μm diameter). A homogenous cell suspension was obtained by washing the cells in fresh medium and passing cells through a smaller cell filter (pore size 70 μm).
Untouched T cells were isolated using the Pan T cell isolation kit (Miltenyi Biotech). Briefly, cells were counted and incubated with the required volume of antibody cocktail for 5 minutes at 4° C. before addition of microbeads and incubation for 10 minutes at 4° C. Labeled cells were retained in a magnetic column while unlabeled cells (T cells) passed through the column and were retained for use in the assay.
Cell viability was assessed by Trypan Blue exclusion and found to be >99% prior to transfer to plates. Isolated T cells were seeded out in 96 well plates at a density of 50,000 cells per well and allowed to incubate for 60 minutes in a humidified cell culture (37° C., 5% CO2) incubator prior to compound treatment. The media used for this assay (TexMACS, Miltenyi Biotech) was previously optimized for proliferation of T cells in serum free conditions.
Representative compounds of the invention (i.e., test compounds) were prepared as 30 mM stocks in 100% DMSO. Test compounds were initially diluted in media to yield 3 mM stocks before an additional 1:10 dilution in media was performed to yield working stocks of 300 μM (1% DMSO). Subsequent dilutions were performed in media (supplemented with 1% DMSO). When added to the assay plates (1:10 dilution), these yielded final concentrations in the assay plates of in 0.1% DMSO. The reference compound, Cyclosporin A, was prepared in an identical manner as above.
Unstimulated and Stimulated Control wells received an identical volume of TexMACS media/1% DMSO at this time, resulting in a final concentration of 0.1% DMSO across the plate. […] After removal of 60% of the supernatant for subsequent ELISA, cell proliferation was assessed using the CCK-8 assay. […]

Mice (male, C57BL/6) = assay: Formalin pain assay in mice; assay type: in vivo, mouse; conditions: 2.5% formalin in left hind paw, time spent flinching/licking/biting
Description: Mice (male, C57BL/6) were placed singly in a Perspex chamber for approximately 30 min on three successive days to acclimate and thereby reduce stress-induced behaviors. On the fourth day, the experimental animals received a 25 μl injection of 2.5% formalin beneath the left plantar skin using a 29-gauge syringe. […] The total time spent on flinches/licking/biting of the hind paw was recorded by visual observation for every 5 min period/interval for total observation duration of 60 min in two phases, the early phase (0-5 min) and the late phase (15-40 min). Observers were blinded to the treatment group allocation.
For test compounds, % protection from 0-60 min was used to assess activity. Scoring for the test compounds was as follows: “A” represents a % protection of 81 to 100%, “B” represents a % protection of 61 to 80%, “C” represents a % protection of 31 to 60% and “D” represents a % protection of 0 to 30%.

C[C@@H]1CC[C@@]2(OC1)O[C@H]1C[C@H]3[C@H](CN)[C@@H]([C@@]4(C)Cc5cn[nH]c5C[C@@H]4CO)CC[C@]3(C)[C@H]1[C@@H]2C [Ia-2, ((5R,6S)-5-((2R,3S,3aR,3bS,5′R,6S,7R,7aS,8aS)-7-(aminomethyl)-3,3b,5′-trimethyltetradecahydrospiro[indeno[2,1-b]furan-2,2′-pyran]-6-yl)-5-methyl-4,5,6,7-tetrahydro-1H-indazol-6-yl)methanol]
Scoring: % of drug remaining after 60 minutes (PDR60) [1]: A (“A” represents a PDR60 of 81 to 100%)
EC50 [2]: 6 to 15 µM
IC50 [3]: 1.5 to 15 µM
Scoring: % protection from 0-60 min (Mice (male, C57BL/6)): D (“D” represents a % protection of 0 to 30%)

C[C@]1([C@H]2CC[C@]3(C)C(O)CC[C@H]3[C@@H]2CO)Cc2cn[nH]c2C[C@@H]1CO (some centres unmarked) [Ia-10a and Ia-10b]
Scoring: % of drug remaining after 60 minutes (PDR60) [1]: C (“C” represents a PDR60 of 31 to 60%)
Scoring: % protection from 0-60 min (Mice (male, C57BL/6)): C (“C” represents a % protection of 31 to 60%)

CC[C@H](CC(O)[C@@H](C)[C@H]1CC[C@H]2[C@H](CO)[C@@H]([C@@]3(C)Cc4cn[nH]c4C[C@@H]3CO)CC[C@]12C)C(C)C (stereo partly drawn) [Ia-9, (2S,5R)-5-ethyl-2-((1R,3aS,4S,5S,7aS)-4-(hydroxymethyl)-5-((5R,6S)-6-(hydroxymethyl)-5-methyl-4,5,6,7-tetrahydro-1H-indazol-5-yl)-7a-methyloctahydro-1H-inden-1-yl)-6-methylheptan-3-ol]
IC50 [3]: 1.5 to 15 µM

C[C@@H]1CC[C@@]2(OC1)O[C@H]1C[C@H]3[C@H](CO)[C@@H]([C@@]4(C)Cc5cn[nH]c5C[C@@H]4CO)CC[C@]3(C)[C@H]1[C@@H]2C [Ia-1, ((5R,6S)-5-((2R,3S,3aR,3bS,5′R,6S,7R,7aS,8aS)-7-(hydroxymethyl)-3,3b,5′-trimethyltetradecahydrospiro[indeno[2,1-b]furan-2,2′-pyran]-6-yl)-5-methyl-4,5,6,7-tetrahydro-1H-indazol-6-yl)methanol]
IC50 [3]: 1.5 to 15 µM
